# Experimental data: patent publication US20090215791A1, “NEW THERAPEUTIC USE OF 4-(2-FLUOROPHENYL)-6-METHYL-2-(1-PIPERAZINYL)THIENO[2,3-D]PYRIMIDINE” (Dynogen Pharmaceuticals, Inc., priority 2001, published 2009)
# Assays:
# [1] = test system: inflammatory pain (inflamed paw); experiment: Inflammatory pain, modified Randall Selitto method, paw pressure analgesiometer (Study 1); assay type: in vivo, rats; settings: for Group mean (±sd) pain threshold (g) of inflamed paw at 1 hour pre-dose / Group mean (±sd) pain threshold (g) of inflamed paw at 2 hour pre-dose: baseline before dosing, 13 per group, groups later given MCI-225 30 mg/kg or indomethacin 1 mg/kg
# Experimental: Three groups of rats received vehicle, indomethacin or MCI-225. There were 13 rats in each group. Inflammatory pain was induced following a modified Randall Selitto method and the pain threshold of the inflamed paw was measured using a paw pressure analgesiometer. The threshold for paw withdrawal was measured in grams at 1 and 3 hours post dose.
# [2] = test system: reflex depressor response to colorectal distension; experiment: Reflex depressor response to colorectal distension in anesthetised rats (Study 2); assay type: in vivo, male Sprague-Dawley rats; settings: for Fall in arterial blood pressure (mean absolute decrease in mean arterial pressure, SEM in brackets) evoked by balloon distension: after MCI-225 3 mg/kg i.v.
# Experimental: In Study 2, using intact animals, the ability of a drug to inhibit the reflex depressor response to colorectal distension can be assessed. In this model, an inhibition of the reflex indicates modulation of visceral nociceptive neurotransmission and, therefore, the use of the drug in functional bowel disease (e.g IBS); see Kozlowski et al, 2000, Gut 46, 474-480. Allodynia and visceral pain are important components of functional bowel disease.
# Experiments were performed on male Sprague-Dawley rats (250-300 g). Anesthesia was induced with isoflurane (2.5% in oxygen) and maintained with alpha chlorolose (80 mg/kg i.v.). The left carotid artery was cannulated for the measurement of blood pressure and heart rate and the left jugular vein cannulated for drug administration. A tracheal cannula was implanted for artificial respiration if required. A 10 mm long latex balloon was inserted intrarectally so that the tip of the balloon was 20 mm from the anal verge (Kozlowski et al, supra). The balloon was connected via a double lumen cannula to a pressure transducer and also to a saline-filled syringe for inflation/deflation of the balloon. Throughout the experiment, body temperature was kept constant at 36-38 C using a homeothermic blanket.
# Once stable baseline parameters were obtained (approximately after 20 minutes), the balloon was rapidly inflated with increasing volumes of saline (0.5-2.5 ml) for 30 seconds at 5 minute intervals, and the resultant change in blood pressure recorded. Three distinct response curves were constructed, with a 10 minute stabilisation period between each curve. In one group of animals, 10 minutes prior to the commencement of the final distension response curve, a single bolus of MCI-225 (3 mg/kg) was administered intravenously; in a second group of animals, a single bolus dose of vehicle was administered. The effect of MCI-225 and vehicle was determined by analysing the changes in colorectal distension that evoked depressor response.
Structure (SMILES),Group mean (±sd) pain threshold (g) of inflamed paw at 1 hour pre-dose ([1]; rats),Group mean (±sd) pain threshold (g) of inflamed paw at 2 hour pre-dose ([1]; rats),"Fall in arterial blood pressure (mean absolute decrease in mean arterial pressure, SEM in brackets) evoked by balloon distension ([2]; 0.5 ml balloon volume, n=6, before drug 2.7 (1.9))","Fall in arterial blood pressure (mean absolute decrease in mean arterial pressure, SEM in brackets) evoked by balloon distension ([2]; 1.0 ml balloon volume, n=6, before drug 12.4 (5.9))","Fall in arterial blood pressure (mean absolute decrease in mean arterial pressure, SEM in brackets) evoked by balloon distension ([2]; 1.5 ml balloon volume, n=6, before drug 24.0 (8.9))","Fall in arterial blood pressure (mean absolute decrease in mean arterial pressure, SEM in brackets) evoked by balloon distension ([2]; 2.0 ml balloon volume, n=6, before drug 36.3 (4.8), p<0.01 paired t test)","Fall in arterial blood pressure (mean absolute decrease in mean arterial pressure, SEM in brackets) evoked by balloon distension ([2]; 2.5 ml balloon volume, n=5, before drug 43.4 (6.0), p<0.05 paired t test)","Effect on distension-induced falls in blood pressure (in words) ([2]; MCI-225 3 mg/kg i.v., significant at 2.0 and 2.5 ml balloon volumes)","Group mean changes (±sd) in pain threshold (g) from pre-dose reading at 1 hour post-dose ([1]; 1 hour post-dose, MCI-225 30 mg/kg (oral), indomethacin 1 mg/kg, rats, * p<0.05, ** p<0.01 vs vehicle, monohydrate hydrochloride)","Group mean changes (±sd) in pain threshold (g) from pre-dose reading at 3 hour post-dose ([1]; 3 hour post-dose, MCI-225 30 mg/kg (oral), indomethacin 1 mg/kg, rats, * p<0.05, ** p<0.01 vs vehicle, monohydrate hydrochloride)",Analgesic activity in in vivo model of inflammatory pain (in words) ([1]; MCI-225 oral dose of 30 mg/kg versus indomethacin 1 mg/kg)
"COc1ccc2c(c1)c(CC(=O)O)c(C)n2C(=O)c1ccc(Cl)cc1 [Indomethacin, indomethacin, reference compound]",166.2 ± 68.32 g,144.2 ± 41.32 g,,,,,,,,,
"Cc1cc2c(-c3ccccc3F)nc(N3CCNCC3)nc2s1.Cl.O [MCI-225, 4-(2-Fluorophenyl)-6-methyl-2-(1-piperazinyl)thieno[2,3-D]pyrimidine monohydrate hydrochloride]",147.7 ± 65.91 g,138.5 ± 34.72 g,2.2 (1.65) mmHg,6.3 (2.6) mmHg,10.6 (3.9) mmHg,15.3 (5.4) mmHg,24.6 (7.3) mmHg,inhibited the distension-induced falls in blood pressure,32.3 g,66.9 g,comparable to that of indomethacin
